Data set [1] has as its system Rattus norvegicus. The data set can be described thus: Antidiabetic activity in po dosed Goto Kakizaki rats assessed as reduction in blood glucose excursion pretreated for 1 hr followed by dextrose challenge measured after 20 to 60 mins by OGTT method. Format: functional. The following applies: read-out: MED.
Data set [2] in a line: Tmax in Wistar rat at 750 mg/kg administered once daily for 4 days. Type of data set: ADME, organism-based. As to conditions: in vivo.
Data set [3] deals with Free fatty acid receptor 1 (Rattus norvegicus) (UniProt Q8K3T4). The data set can be described thus: Agonist activity at recombinant rat GPR40 expressed in CHOK1 cells assessed as increase in IP1 accumulation measured after 60 mins by HTRF assay relative to AM-1638. Type of data set: functional, cell-based. For orientation: Time-resolved FRET reads energy transfer from a long-lived donor to a nearby acceptor.
Sequence of Free fatty acid receptor 1 (Rattus norvegicus) (Q8K3T4 whole entry): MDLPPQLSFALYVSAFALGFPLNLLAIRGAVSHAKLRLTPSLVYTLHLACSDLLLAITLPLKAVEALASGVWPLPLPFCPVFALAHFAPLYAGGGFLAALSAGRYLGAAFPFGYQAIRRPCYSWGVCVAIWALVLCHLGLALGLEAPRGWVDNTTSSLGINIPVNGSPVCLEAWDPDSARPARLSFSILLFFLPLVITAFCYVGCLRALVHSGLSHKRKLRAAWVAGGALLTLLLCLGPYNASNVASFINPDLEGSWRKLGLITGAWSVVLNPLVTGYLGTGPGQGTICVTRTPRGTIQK

Data set [4] relates to Rattus norvegicus. As to the kind of experiment: Antidiabetic activity in Goto Kakizaki rats assessed as inhibition of blood glucose AUC at 1 mg/kg, po pretreated for 1 hr followed by dextrose challenge measured after 20 to 60 mins by OGTT method relative to control. Type of data set: functional.
Data set [5] in a line: AUC (0 to 24 hrs) in Wistar rat at 200 mg/kg administered once daily for 4 days. Details: dose 200 mg/kg, time < 24 hr. As to conditions: in vivo. Type of data set: ADME, organism-based.
Data set [6] relates to Rattus norvegicus. The data set can be described thus: Toxicity in Wistar rat assessed as decrease in body weight at 200 mg/kg administered once daily for 4 days relative to control. Type of data set: organism-based. Also on record: scale not given: the % may be the effect or the level left. The following applies: in vivo, 96 h.
Data set [7] is described as follows: Volume of distribution at steady state in Beagle dog at 1 mg/kg, iv or 2 mg/kg, po administered as single dose. Format: ADME, organism-based, Canis lupus familiaris. The following applies: in vivo, read-out: Vdss.
Data set [8] can be described thus: Clearance in Wistar-Han rat at 1 mg/kg, iv or 2 mg/kg, po administered as single dose. Type of data set: ADME, organism-based. The following applies: in vivo.
Data set [9] in a line: Cmax in Wistar rat at 750 mg/kg administered once daily for 4 days. Also on record: dose 750 mg/kg. Type of data set: ADME, organism-based. The following applies: in vivo.
The test system of data set [10] is Mus musculus. As to the kind of experiment: Antidiabetic activity in po dosed C57BL/6 mouse assessed as increase in GLP-1 secretion measured after 1 hr. Format: functional, organism-based.
Data set [11] can be described thus: Tmax in Wistar rat at 200 mg/kg administered once daily for 4 days. Type of data set: ADME, organism-based. As to conditions: in vivo.
Data set [12] concerns Rattus norvegicus. The data set can be described thus: Antidiabetic activity in Goto Kakizaki rats assessed as inhibition of blood glucose AUC at 30 mg/kg, po pretreated for 1 hr followed by dextrose challenge measured after 20 to 60 mins by OGTT method relative to control. Type of data set: functional.
Data set [13] has as its system Rattus norvegicus. The data set can be described thus: Toxicity in Wistar rat assessed as increase in liver weight at 200 to 750 mg/kg administered once daily for 4 days. Type of data set: organism-based. The following applies: in vivo, 96 h.
A short description of data set [14]: Oral bioavailability in Wistar-Han rat at 2 mg/kg administered as single dose. The following applies: in vivo. Type of data set: ADME, organism-based.
Data set [15] is described as follows: Intrinsic clearance in rhesus monkey hepatocytes. As to conditions: read-out: CLH. Format: ADME, cell-based, Macaca mulatta, Hepatocyte.
Data set [16] concerns Rattus norvegicus. The data set can be described thus: Toxicity in Wistar rat assessed as change in cardiac troponin1 levels at 200 to 750 mg/kg administered once daily for 4 days. Format: organism-based. As to conditions: in vivo, 96 h.
Data set [17] concerns Rattus norvegicus. As to the kind of experiment: Antidiabetic activity in Goto Kakizaki rats assessed as inhibition of blood glucose AUC at 3 mg/kg, po pretreated for 1 hr followed by dextrose challenge measured after 20 to 60 mins by OGTT method relative to control. Format: functional.
Data set [18] can be described thus: Effective half life in Beagle dog at 1 mg/kg, iv or 2 mg/kg, po administered as single dose. The following applies: in vivo, read-out: t1/2eff (converted). Format: ADME, organism-based, Canis lupus familiaris.
The target in data set [19] is Free fatty acid receptor 1 (Homo sapiens, UniProt O14842). The data set can be described thus: Agonist activity at recombinant human GPR40 expressed in HEK293 cells assessed as increase in IP1 accumulation measured after 60 mins in presence of 100% human serum by HTRF assay relative to AM-1638. Format: functional, cell-based.
Sequence of Free fatty acid receptor 1 (O14842 whole entry): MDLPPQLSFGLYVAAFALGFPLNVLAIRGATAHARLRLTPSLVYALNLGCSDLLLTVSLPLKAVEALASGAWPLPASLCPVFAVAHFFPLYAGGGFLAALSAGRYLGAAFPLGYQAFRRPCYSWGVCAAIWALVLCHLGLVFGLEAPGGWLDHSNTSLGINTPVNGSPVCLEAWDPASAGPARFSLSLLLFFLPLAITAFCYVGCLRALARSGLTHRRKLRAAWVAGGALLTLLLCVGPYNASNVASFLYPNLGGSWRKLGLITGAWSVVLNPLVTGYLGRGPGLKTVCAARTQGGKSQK

For orientation: Tmax means the time at which the peak concentration occurs. In general, inhibition in vivo refers to the change of the read-out against control, counted positive when it falls. A word on the AUC: it is concentration integrated over time. As a reminder, the Cmax is the highest concentration seen after dosing. As a reminder, the bioavailability is dose-corrected exposure relative to a reference, in per cent. In the case of `COc1cc(-c2ccc([C@@H]3CCc4ccc([C@H](C5CC5)[C@H](C)C(=O)[O-])cc4O3)c(F)c2)ccn1.[Na+]`, in data set [1], the minimal effective dose is 10 mg/kg. For the same molecule, the Tmax in [2] and in data set [11] was 1 to 2 h throughout. Besides, the max activation in [3] was more than 370%; in [19], more than 179%. The inhibition in vivo at 1 mg/kg in [4] was found to be 95%. For the same molecule, the AUC at 24 h in [5] is 2310 µM·h. Also, the Activity in data set [6] was 72%; in data set [10] it was “Dose-dependent effect”; in [13] it was “Non-Toxic”; in data set [16], “Non-Toxic”. Besides, in data set [7], the Vd worked out at 0.45 L/kg. In [8], this molecule had a clearance of 2.8 mL/min/kg. Also, the highest level in data set [9] (Cmax) was 545 µM. In data set [12], the inhibition in vivo at 30 mg/kg worked out at 114%. In data set [14], the bioavailability came to 81%. Further, in data set [15], the CLint scaled came out at 102 mL/min/kg. Moreover, in [17], the inhibition in vivo at 3 mg/kg was determined as 108%. For the same molecule, in data set [18], the half-life was 6.9 h.

The record behind these values is ChEMBL document CHEMBL4145665, “Structure-Activity Relationship of Novel and Selective Biaryl-Chroman GPR40 AgoPAMs” (ACS Med Chem Lett, 2018).
